“Also recorded” adds a separate entry of the source.
Legend:
[1] = test system: HL-60 cells injected intravenously; assay: HL-60 cell mouse survival model; format: in vivo, SCID mice; conditions: treatment starting 11 days after cell injection
Method: FIGS. 24A & B show anti-tumor efficacy of My9-6-DM1 compared with Gentuzumab ozogamicin and standard chemotherapy in an HL-60 survival model. HL-60 cells were intravenously injected into SCID mice. Indicated treatments were started 11 days following injection of cells. Treatments were i.v. daily ×5 except for Gentuzumab ozogamicin (Q4D×3).
(§1) Subcutaneous tumor model—HL-60 human promyelocytic leukemia cells (5×10^6 cells in 0.1 mL) were subcutaneously inoculated into the right flank of female SCID mice. Mice were treated by intravenous injection into a lateral tail vein starting when tumors reached 100 mm^3 in size (400 mm^3 in large tumor model). Tumor size and mouse body weight were measured twice per week. Survival model—HL-60 cells (5×10^6 cells in 0.1 mL) were intravenously injected into the lateral tail vein of female SCID mice. Eleven days after tumor cell injection treatment was started. Mice were checked every day for moribund, tumor mass, or death. Body weight was measured twice per week.
While the efficacy of My9-6-DM1 in the tumor xenograft model is striking, it is also of interest to look at the activity of the conjugate in a mouse survival model where HL-60 cells are injected directly into a mouse tail vein. In this model, control mice die between 30 and 50 days after cell injection. […] However, even in this model, standard chemotherapy provided no significant survival enhancement (FIG. 24B).

[2] = nude mice; cited from earlier work
CD33 [3] = target: T1, CD33 (Homo sapiens, UniProt P20138); conditions: Phase I; cited from earlier work
T1 construct: Gemtuzumab ozogamicin was evaluated in phase I and II clinical studies; host or cells: patients (AML)

[4] = test system: leukemia cells (HL-60 cell cultures, HL-60 tumor xenografts in mice, marrow samples from AML patients); conditions: cited from earlier work
[5] = in vivo; cited from earlier work
[6] = test system: human HL-60 tumor cell xenografts; assay: Subcutaneous HL-60 tumor xenograft model in SCID mice; format: in vivo
Method: as §1
The efficacy of My9-6-DM1 in vivo was determined using SCID mice bearing human HL-60 tumor cell xenografts. HL-60 cells were injected subcutaneously and tumors were allowed to grow to an average size of 100 mm^3. Dosage is expressed as mg antibody in the conjugate, which corresponds to a DM1 dose of approximately 15 μg DM1 per mg of antibody. Tumor volume was measured as an indication of treatment efficacy and mouse body weight was monitored to indicate toxicity due to treatment.

CD33 [7] = target: T1, CD33; conditions: 9 mg/m^2 i.v. over 4 hours, repeated after 14 days; cited from earlier work
THP-1 cells = assay: In vitro clonogenic cytotoxicity assay, CD33-expressing cells; format: cell-based, human; conditions: THP-1, clonogenic assay
Method: (§2) The cytotoxicity of My9-6-DM1 was measured using the CD33-expressing THP-1 cell and the CD33-negative cell line Namalwa. Cells were plated in 96-well plates in media containing the conjugate and incubated at 37° C. until colonies had formed (2-3 weeks). Colonies were then scored, and the surviving fractions determined using Poisson distribution in the calculations.
(§3) The cytotoxicity of My9-6-DM1 toward CD33 expressing cells (THP-1) compared to a CD33-negative cell line (Namalwa) was tested using a clonogenic assay, where cell killing activity is determined by quantifying the number of colonies that can grow following treatment.

[8] = test system: human THP-1 tumor xenografts; assay: Subcutaneous THP-1 tumor xenograft model in mice; format: in vivo; conditions: data not shown
Namalwa cells = assay: In vitro clonogenic cytotoxicity assay, CD33-negative cells; format: cell-based
Method: as §2, §3

CD33 on HL-60 cells = target: T2, CD33 on HL-60 cells (Homo sapiens, UniProt P20138); assay: Antibody and conjugate binding to HL-60 cells by flow cytometry
T2 construct: endogenous in cells; host or cells: HL-60 human leukemic cell line (whole cells; plasma membranes prepared from HL-60)
Method: HL-60 cells were incubated with various concentrations of either My9-6 antibody or My9-6-DM1. The cells were then washed and incubated with a secondary FITC-labeled anti-murine IgG antibody. Following an additional wash, cells were fixed with 2% formaldehyde and cell-associated fluorescence was quantified using a BD FACScan flow cytometer.

large HL-60 tumors = assay: Large HL-60 tumor xenograft model in SCID mice; format: in vivo
Method: as §1
Tumors were allowed to grow to a tumor volume of >400 mm^3 prior to the initiation of treatment. In addition, a comparison of the activity of My9-6-DM1 with standard chemotherapeutic drugs was conducted. […]

[9] = 100 μg/kg, every 4 days for 3 doses
[10] = 20 mg conjugated antibody/kg/day i.v. ×5 days
[11] = second treatment identical to the first
[12] = tumor volume >400 mm^3 at start of treatment

T1 sequence (P20138 18-364): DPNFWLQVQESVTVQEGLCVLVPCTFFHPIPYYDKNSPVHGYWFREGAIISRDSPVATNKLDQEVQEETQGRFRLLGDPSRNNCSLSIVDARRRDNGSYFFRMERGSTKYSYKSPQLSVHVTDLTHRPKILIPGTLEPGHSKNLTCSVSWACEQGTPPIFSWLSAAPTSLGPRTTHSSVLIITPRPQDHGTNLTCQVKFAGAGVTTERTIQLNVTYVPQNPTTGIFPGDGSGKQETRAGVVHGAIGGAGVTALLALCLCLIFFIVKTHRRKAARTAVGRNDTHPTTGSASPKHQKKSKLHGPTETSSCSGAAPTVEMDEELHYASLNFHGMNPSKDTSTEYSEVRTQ
T2 sequence (P20138 18-364): as above

Gemtuzumab ozogamicin: humanized anti-CD33 antibody conjugated to calicheamicin [reference compound]
effect on survival [1]: modest increase in survival | published MTD [2]: 0.3 mg/kg | major toxicity observed (CD33 [3]): myelosuppression | killing of leukemia cells [4]: specific killing of leukemia cells | toxicity in post-marketing reports [5]: venoocclusive disease (VOD) | tumor growth delay [6, 9]: about 25 days | tumor response [6, 9]: modest tumor regression | toxicity in SCID mice ([6]; 0.3 mg/kg, preliminary experiment, data not shown): too toxic | toxicity ([6]; 100 and 200 μg/kg, every 4 days for 3 doses): Significant toxicity | maximum tolerated dose ([6]; SCID mice, every 4 days for 3 doses): 0.1 mg/kg | response rate (CD33 [7]): 30%

My9-6-DM1: murine My9-6 antibody linked via SPP disulfide linker to the maytansinoid DM1
effect on survival [1]: dramatic increase in survival | mice alive at 70 days ([1]; i.v. daily ×5): 7 of 8 | cytotoxicity toward CD33-positive tumor cells (THP-1 cells): potent antigen-specific cytotoxicity; also recorded: potent cell killing activity | outcome of mice bearing THP-1 xenografts [8]: long-term cures | toxicity toward CD33-negative cells (Namalwa cells): No significant toxicity | CD33 binding of conjugate compared with unmodified antibody (CD33 on HL-60 cells): maintained the specificity and binding affinity of the unmodified antibody; also recorded: comparable to the unmodified antibody | mice showing complete cures ([6]; 13 mg/kg i.v. once a day for 5 days): 2 of 5 | tumor growth delay ([6]; 13 mg/kg i.v. once a day for 5 days, the other 3 mice): approximately 20 days | toxicity [6, 10]: no toxicity | tumor response [6, 10]: complete eradication of the tumors | tumor response ([6]; 23 mg antibody/kg (350 μg DM1/kg) daily for 5 days): complete regression of the tumors | mouse body weight decrease ([6]; 23 mg antibody/kg daily for 5 days): 12% | mice with regrowth of tumors ([6]; 23 mg antibody/kg daily for 5 days, starting at day 70): two of the six | maximum body weight loss ([6]; 19 and 26 mg/kg i.v. once a day for 5 days): less than 10% | tumor response ([6]; 19 and 26 mg/kg i.v. once a day for 5 days, tumors 100 mm^3): complete regression of the tumors | outcome of mice bearing HL-60 xenografts ([6]; i.v. once a day for 5 days): long-term cures | toxicity at curative doses ([6]; i.v. once a day for 5 days): little toxicity | response of relapsing tumors to second treatment [6, 11]: complete regression | toxicity of second treatment [6, 11]: no adverse toxicity | response of relapsed tumors to second treatment (large HL-60 tumors; second treatment of My9-6-DM1): sensitive to a second treatment | mice with relapsed tumors (large HL-60 tumors; [12]): 2 of 6 | tumor response (large HL-60 tumors; [12]): complete regression of large tumors
